Results on 13 compounds are retold here after patent EP4782453A1 (Beyang Therapeutics Co., Ltd., priority 2023, dated 2025).

Broadly, the IC50 is the midpoint of a concentration-inhibition curve.

The assay addresses T1, Menin-MLL (Homo sapiens, UniProt O00255).
T1 construct: His-Menin (M1-L615 end); purchased BIORTUS BP9210
T1 sequence (O00255 1-615 isoform O00255-1): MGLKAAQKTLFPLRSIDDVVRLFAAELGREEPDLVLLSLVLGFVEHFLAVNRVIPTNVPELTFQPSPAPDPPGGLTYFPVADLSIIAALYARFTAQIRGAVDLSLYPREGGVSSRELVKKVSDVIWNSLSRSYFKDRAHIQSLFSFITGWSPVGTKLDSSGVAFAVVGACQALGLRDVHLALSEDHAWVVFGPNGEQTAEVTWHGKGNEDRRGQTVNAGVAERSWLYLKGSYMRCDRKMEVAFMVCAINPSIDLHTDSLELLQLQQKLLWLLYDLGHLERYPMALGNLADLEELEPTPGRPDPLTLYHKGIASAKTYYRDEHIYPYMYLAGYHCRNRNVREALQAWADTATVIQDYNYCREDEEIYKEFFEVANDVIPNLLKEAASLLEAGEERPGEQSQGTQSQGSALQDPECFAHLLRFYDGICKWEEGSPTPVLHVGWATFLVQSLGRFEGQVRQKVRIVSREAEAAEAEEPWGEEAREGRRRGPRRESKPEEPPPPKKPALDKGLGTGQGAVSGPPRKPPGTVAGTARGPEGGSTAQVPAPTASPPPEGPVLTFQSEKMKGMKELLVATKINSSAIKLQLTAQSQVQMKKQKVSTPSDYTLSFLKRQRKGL
As to the kind of experiment: Inhibitory activity against Menin-MLL binding (fluorescence polarization). The following applies: fluorescence polarization; 150 nM His-Menin, 15 nM FITC-MLL; 25°C for 60 min; read-out: Menin-MLL IC50. The method, boiled down:
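His-Menin (M1-L615, 150 nM) preincubated with compound 15 min at 25 °C in HEPES pH 7.5, 50 mM NaCl, 1 mM DTT, 0.01% BSA, then 15 nM FITC-MLL4-43 peptide added for 60 min at 25 °C. Fluorescence polarization read; IC50 from 4-parameter logistic fit, duplicates.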
On to `CCN(C(=O)c1cc(F)ccc1-c1cc(C2CN([C@@H](CN3CCN(CCO)CC3)C(C)C)C2)cc2c1cnn2C)C(C)C` [Example 416-1, N-ethyl-5-fluoro-2-(6-{1-[(2R)-1-[4-(2-hydroxyethyl)piperazin-1-yl]-3-methylbutan-2-yl]azacyclobutan-3-yl}-1-methyl-1H-indazol-4-yl)-N-(isopropyl)benzamide], for which the IC50 was 150 nM.
Regarding `CCN(C(=O)c1cc(F)ccc1-c1cc(C2CN([C@H](CN3CCN(C(C)=O)CC3)C(C)C)C2)cc2c1cnn2C)C(C)C` [Example 417], the IC50 turned out to be 62 nM.
With `CCN1CCN(C[C@H](C(C)C)N2CC(c3cc(-c4ccc(F)cc4C(=O)N(CC)C(C)C)c4cnn(C)c4c3)C2)CC1` [Example 418], the IC50 was 6.3 nM.
As for `CCN(C(=O)c1cc(F)ccc1-c1cc(C2CN(C(CO)C(C)C)C2)cn2c(C)ncc12)C(C)C` (stereo not shown) [Example 421, N-ethyl-5-fluoro-2-{6-[1-(1-hydroxyl-3-methylbutan-2-yl)azacyclobutan-3-yl]-3-methylimidazo[1,5-a]pyridin-8-yl}-N-(isopropyl)benzamide], the IC50 came out at 14 nM.
Regarding `CCN(C(=O)c1cc(F)ccc1-c1cc(C2CN([C@H](CN3CCN(CCOC)CC3)C(C)C)C2)cc2c1cnn2C)C(C)C` [Example 422], the IC50 amounted to 29 nM.
Turning to `CCN(C(=O)c1cc(F)ccc1-c1cc(C2CN([C@H](CN3CCN(CCF)CC3)C(C)C)C2)cc2c1cnn2C)C(C)C` [Example 424, N-ethyl-5-fluoro-2-(6-{1-[(2S)-1-[4-(2-fluoroethyl)piperazin-1-yl]-3-methylbutan-2-yl]azacyclobutan-3-yl}-1-methyl-1H-indazol-4-yl)-N-(isopropyl)benzamide], the IC50 came to 78 nM.
With `CCN(C(=O)c1cc(F)ccc1-c1cc(C2CN(C(CCC(=O)O)C(C)C)C2)cn2c(C)ncc12)C(C)C` (stereo not shown) [Example 427, 4-[3-(8-{2-[ethyl(isopropyl)aminoformyl]-4-fluorophenyl}-3-methylimidazo[1,5-a]pyridin-6-yl)azacyclobutan-1-yl]-5-methylhexanoic acid] the figure was 120 nM; with `CCN(C(=O)c1cc(F)ccc1-c1cc(C2CN(C(C[C@H](O)CO)C(C)C)C2)cn2c(C)ncc12)C(C)C` (stereo partly drawn) [Example 437, 2-(6-{1-[(5S)-5,6-dihydroxyl-2-methylhexan-3-yl]azacyclobutan-3-yl}-3-methylimidazo[1,5-a]pyridin-8-yl)-N-ethyl-5-fluoro-N-(isopropyl)benzamide], 12 nM; with `CCN(C(=O)c1cc(F)ccc1-c1cc(C2CN(C(C[C@@H](O)CO)C(C)C)C2)cn2c(C)ncc12)C(C)C` (stereo partly drawn) [Example 438, 2-(6-{1-[(5R)-5,6-dihydroxyl-2-methylhexan-3-yl]azacyclobutan-3-yl}-3-methylimidazo[1,5-a]pyridin-8-yl)-N-ethyl-5-fluoro-N-(isopropyl)benzamide], 14 nM.
Turning to `CCN(C(=O)c1cc(F)ccc1-c1cc(C2CN(C(CN3CCOCC3)C(C)C)C2)cn2c(C)ncc12)C(C)C` (stereo not shown) [Example 439, N-ethyl-5-fluoro-2-(3-methyl-6-{1-[3-methyl-1-(morpholin-4-yl)butan-2-yl]azacyclobutan-3-yl}imidazo[1,5-a]pyridin-8-yl)-N-(isopropyl)benzamide], the IC50 was 21 nM.
Consider `CCN(C(=O)c1cc(F)ccc1-c1cc(C2CN([C@@H](CN3CCS(=O)(=O)CC3)C(C)C)C2)cn2c(C)ncc12)C(C)C` [Example 441-2, 2-(6-{1-[(2R)-1-(1,1-dioxo-thiomorpholin-4-yl)-3-methylbutan-2-yl]azacyclobutan-3-yl}-3-methylimidazo[1,5-a]pyridin-8-yl)-N-ethyl-5-fluoro-N-(isopropyl)benzamide], for which the IC50 was determined as 110 nM.
With `CCN(C(=O)c1cc(F)ccc1-c1cc(C2CN([C@H](CN3CCN(C(C)=O)CC3)C(C)C)C2)cn2c(C)ncc12)C(C)C` [Example 443], the IC50 came to 19.5 nM.
Consider `CCN(C(=O)c1cc(F)ccc1-c1cc(C2CN(C(CN3CCC(OC)CC3)C(C)C)C2)cn2c(C)ncc12)C(C)C` (stereo not shown) [Example 444], for which the IC50 came to 45 nM.
